Activity calls are given as the source filed them.
Legend:
[1] = molecular target: G-protein coupled receptor 55 (Homo sapiens, UniProt Q9Y2T6); test: inhibition of LPI-stimulated GPR55 beta-arrestin translocation – imaging, U2OS, beta-arrestin-GFP, LPI agonist, primary screen (AID 2013); assay type: functional;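 also: antagonist potency measured as reduced agonist-driven arrestin aggregation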
[2] = molecular target: Glyceraldehyde-3-phosphate dehydrogenase (Homo sapiens, UniProt P04406)
[3] = molecular target: T1, Alkaline phosphatase, tissue-nonspecific isozyme (Homo sapiens, UniProt P05186); test: potency against alkaline phosphatase TNAP – biochemical, luminescent, dose response, SAR follow-up (AID 1056)
T1 sequence (P05186 whole entry): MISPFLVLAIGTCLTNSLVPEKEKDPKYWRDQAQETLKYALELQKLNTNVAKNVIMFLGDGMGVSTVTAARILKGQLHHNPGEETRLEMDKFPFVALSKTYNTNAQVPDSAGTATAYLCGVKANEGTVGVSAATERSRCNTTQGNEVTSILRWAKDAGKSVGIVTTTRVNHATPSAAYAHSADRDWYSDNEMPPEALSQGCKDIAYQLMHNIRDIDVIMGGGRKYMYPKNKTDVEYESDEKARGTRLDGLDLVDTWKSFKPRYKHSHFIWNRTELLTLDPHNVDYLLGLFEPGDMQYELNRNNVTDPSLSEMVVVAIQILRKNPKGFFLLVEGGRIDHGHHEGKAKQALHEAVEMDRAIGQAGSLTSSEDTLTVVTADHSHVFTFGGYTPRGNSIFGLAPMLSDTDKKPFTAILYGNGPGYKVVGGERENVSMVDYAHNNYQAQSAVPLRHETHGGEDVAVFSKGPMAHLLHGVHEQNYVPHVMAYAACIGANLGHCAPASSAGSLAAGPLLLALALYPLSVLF

[4] = Trypanosoma cruzi growth suppression in host cells – NIH3T3 host cells, beta-gal luminescence, confirmation (AID 2044); assay type: functional, cell-based;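 also: intracellular parasites grown in NIH/3T3 mouse fibroblasts as host cells; luminescent beta-galactosidase reporter signal from transgenic T. cruzi replicating inside host cells; inhibitors lower the luminescence signal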
[5] = NIH3T3 cell viability loss – ATP luminescence, mouse fibroblasts, counter-screen, dose response (AID 2010); assay type: functional, cell-based;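 also: cells exposed to compound for about 90 hours before reading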
[6] = molecular target: Glucose-6-phosphate 1-dehydrogenase (Homo sapiens, UniProt P11413); test: inhibition of Homo sapiens G6PD, dose series – biochemical, fluorescence, selectivity assay for P. falciparum G6PD inhibitor project, dose response (AID 504792); assay type: functional
Chain of Glucose-6-phosphate 1-dehydrogenase (P11413 whole entry): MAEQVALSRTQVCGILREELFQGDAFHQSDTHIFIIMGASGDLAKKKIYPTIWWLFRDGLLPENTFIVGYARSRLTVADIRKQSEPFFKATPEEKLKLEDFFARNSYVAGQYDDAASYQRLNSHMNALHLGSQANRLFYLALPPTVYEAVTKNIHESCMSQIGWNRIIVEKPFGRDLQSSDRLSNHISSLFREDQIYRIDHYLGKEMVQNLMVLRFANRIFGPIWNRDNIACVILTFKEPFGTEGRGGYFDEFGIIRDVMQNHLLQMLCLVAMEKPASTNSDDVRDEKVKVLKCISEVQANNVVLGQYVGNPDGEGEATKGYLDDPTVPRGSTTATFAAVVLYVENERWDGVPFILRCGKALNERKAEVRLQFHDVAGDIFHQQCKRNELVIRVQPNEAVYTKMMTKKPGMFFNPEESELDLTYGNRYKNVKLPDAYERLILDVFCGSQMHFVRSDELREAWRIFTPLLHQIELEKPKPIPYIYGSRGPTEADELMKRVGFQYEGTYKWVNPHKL

[7] = molecular target: Cytochrome P450 2C19 (Homo sapiens, UniProt P33261); test: Cytochrome panel assay with activity outcomes. Panel member name: p450-cyp2c19 Compounds with AC50 equal or less than 10 uM are considered active; assay type: functional; details: read-out: AC50
Chain of Cytochrome P450 2C19 (P33261 whole entry): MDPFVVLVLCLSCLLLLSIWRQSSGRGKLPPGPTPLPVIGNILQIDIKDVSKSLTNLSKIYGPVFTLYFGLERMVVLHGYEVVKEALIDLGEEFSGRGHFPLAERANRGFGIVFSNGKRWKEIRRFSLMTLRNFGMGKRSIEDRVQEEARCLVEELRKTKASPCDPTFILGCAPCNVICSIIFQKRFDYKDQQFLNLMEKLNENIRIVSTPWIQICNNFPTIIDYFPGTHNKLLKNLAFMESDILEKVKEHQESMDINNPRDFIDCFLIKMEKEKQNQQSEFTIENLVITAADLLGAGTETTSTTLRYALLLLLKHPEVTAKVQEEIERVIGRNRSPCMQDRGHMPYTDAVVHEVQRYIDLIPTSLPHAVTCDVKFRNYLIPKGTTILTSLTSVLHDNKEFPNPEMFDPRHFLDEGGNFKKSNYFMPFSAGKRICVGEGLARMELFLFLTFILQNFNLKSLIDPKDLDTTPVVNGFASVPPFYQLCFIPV

[8] = molecular target: T2, Delta-type opioid receptor (Homo sapiens, UniProt P41143); test: HTS Image-Based Screen for Antagonists of the DOR Receptor. [Related pubchem assays (depositor defined):AID1777, AID1785, AID1786, AID2133]; assay type: functional
T2 sequence (P41143 whole entry): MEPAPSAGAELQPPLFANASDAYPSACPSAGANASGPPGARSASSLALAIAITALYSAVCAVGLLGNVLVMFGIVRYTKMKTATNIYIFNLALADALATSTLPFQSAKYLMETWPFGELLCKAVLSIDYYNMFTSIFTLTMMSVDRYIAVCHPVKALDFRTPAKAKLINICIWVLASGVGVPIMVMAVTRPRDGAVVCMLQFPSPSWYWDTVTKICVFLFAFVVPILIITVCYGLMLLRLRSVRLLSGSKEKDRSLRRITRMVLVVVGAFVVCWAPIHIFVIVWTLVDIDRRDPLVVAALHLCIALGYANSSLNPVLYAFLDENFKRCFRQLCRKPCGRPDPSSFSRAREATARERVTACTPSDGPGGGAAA

[9] = molecular target: Mu-type opioid receptor (Homo sapiens, UniProt P35372); test: HTS Image-Based Screen for Agonists of the MOR Receptor. [Related pubchem assays (depositor defined):AID1777, AID1785, AID1786, AID2133]; assay type: functional;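 also: imaging of beta-arrestin GFP recruitment into spots after receptor activation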
Chain of Mu-type opioid receptor (P35372 whole entry): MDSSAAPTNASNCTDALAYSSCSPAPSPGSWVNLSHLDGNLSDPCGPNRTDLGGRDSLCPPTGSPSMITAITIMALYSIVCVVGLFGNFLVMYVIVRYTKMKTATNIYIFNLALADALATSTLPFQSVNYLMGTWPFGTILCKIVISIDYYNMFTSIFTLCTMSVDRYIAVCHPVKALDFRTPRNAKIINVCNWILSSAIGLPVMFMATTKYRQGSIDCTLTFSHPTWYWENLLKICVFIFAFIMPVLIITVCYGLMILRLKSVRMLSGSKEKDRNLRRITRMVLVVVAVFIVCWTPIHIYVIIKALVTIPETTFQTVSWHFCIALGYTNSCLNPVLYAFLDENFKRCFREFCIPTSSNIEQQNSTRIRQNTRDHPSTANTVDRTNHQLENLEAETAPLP

[10] = molecular target: T2, Delta-type opioid receptor; test: HTS Image-Based Screen for Agonists of the DOR Receptor. [Related pubchem assays (depositor defined):AID1777, AID1786, AID2133]; assay type: functional
[11] = molecular target: T3, Kappa-type opioid receptor (Homo sapiens, UniProt P41145); assay type: functional
T3 sequence (P41145 whole entry): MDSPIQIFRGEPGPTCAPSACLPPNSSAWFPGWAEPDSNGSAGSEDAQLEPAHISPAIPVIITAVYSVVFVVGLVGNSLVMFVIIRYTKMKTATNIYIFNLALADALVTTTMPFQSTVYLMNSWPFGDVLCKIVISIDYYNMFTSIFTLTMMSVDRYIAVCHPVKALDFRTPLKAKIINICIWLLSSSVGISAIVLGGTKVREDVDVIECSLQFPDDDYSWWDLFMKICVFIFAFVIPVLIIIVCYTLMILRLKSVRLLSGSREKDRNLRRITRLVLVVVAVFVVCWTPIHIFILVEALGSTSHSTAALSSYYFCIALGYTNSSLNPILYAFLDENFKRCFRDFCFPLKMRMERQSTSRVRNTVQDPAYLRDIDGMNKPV

[12] = molecular target: Beta-galactosidase (Escherichia coli, UniProt Q8VNN2); assay type: functional
Chain of Beta-galactosidase (Q8VNN2 whole entry): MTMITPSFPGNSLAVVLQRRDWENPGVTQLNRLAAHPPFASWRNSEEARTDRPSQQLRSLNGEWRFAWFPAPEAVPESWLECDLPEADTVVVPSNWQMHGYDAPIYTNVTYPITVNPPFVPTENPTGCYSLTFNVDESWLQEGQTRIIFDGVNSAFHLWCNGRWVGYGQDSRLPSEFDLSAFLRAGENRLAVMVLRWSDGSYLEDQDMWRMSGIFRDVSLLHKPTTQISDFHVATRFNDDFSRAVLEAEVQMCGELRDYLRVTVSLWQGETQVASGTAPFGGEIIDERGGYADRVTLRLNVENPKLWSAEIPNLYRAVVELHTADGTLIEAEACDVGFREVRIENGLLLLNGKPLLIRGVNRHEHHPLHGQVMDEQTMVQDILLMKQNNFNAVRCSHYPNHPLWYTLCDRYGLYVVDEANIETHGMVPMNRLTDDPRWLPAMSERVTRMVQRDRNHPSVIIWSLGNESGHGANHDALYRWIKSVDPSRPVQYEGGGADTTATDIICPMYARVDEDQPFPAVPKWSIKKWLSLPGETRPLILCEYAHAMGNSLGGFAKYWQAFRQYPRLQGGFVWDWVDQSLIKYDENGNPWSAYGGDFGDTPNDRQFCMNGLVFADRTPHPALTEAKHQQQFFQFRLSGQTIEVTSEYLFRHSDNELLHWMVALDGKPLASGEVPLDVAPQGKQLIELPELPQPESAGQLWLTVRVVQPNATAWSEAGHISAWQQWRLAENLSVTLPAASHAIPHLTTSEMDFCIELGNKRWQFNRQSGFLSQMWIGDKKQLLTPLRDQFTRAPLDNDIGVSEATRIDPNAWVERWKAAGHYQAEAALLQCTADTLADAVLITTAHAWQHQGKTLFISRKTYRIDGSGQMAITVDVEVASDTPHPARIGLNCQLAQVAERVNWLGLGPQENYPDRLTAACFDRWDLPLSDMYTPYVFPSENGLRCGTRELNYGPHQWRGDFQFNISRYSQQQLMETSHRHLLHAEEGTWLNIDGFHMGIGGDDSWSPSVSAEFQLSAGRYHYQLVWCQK

[13] = molecular target: T3, Kappa-type opioid receptor; assay type: functional; remark: listed apart in the source
[14] = molecular target: T4, Short transient receptor potential channel 4 (Mus musculus, UniProt Q9QUQ5); test: block of DAMGO-driven TRPC4 calcium entry – cell-based, HEK293 TRPC4/mu-opioid, Fluo-4 calcium, dose response (AID 434942); assay type: functional;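 also: potency of inhibitors blocking the TRPC4 calcium response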
T4 sequence (Q9QUQ5 whole entry): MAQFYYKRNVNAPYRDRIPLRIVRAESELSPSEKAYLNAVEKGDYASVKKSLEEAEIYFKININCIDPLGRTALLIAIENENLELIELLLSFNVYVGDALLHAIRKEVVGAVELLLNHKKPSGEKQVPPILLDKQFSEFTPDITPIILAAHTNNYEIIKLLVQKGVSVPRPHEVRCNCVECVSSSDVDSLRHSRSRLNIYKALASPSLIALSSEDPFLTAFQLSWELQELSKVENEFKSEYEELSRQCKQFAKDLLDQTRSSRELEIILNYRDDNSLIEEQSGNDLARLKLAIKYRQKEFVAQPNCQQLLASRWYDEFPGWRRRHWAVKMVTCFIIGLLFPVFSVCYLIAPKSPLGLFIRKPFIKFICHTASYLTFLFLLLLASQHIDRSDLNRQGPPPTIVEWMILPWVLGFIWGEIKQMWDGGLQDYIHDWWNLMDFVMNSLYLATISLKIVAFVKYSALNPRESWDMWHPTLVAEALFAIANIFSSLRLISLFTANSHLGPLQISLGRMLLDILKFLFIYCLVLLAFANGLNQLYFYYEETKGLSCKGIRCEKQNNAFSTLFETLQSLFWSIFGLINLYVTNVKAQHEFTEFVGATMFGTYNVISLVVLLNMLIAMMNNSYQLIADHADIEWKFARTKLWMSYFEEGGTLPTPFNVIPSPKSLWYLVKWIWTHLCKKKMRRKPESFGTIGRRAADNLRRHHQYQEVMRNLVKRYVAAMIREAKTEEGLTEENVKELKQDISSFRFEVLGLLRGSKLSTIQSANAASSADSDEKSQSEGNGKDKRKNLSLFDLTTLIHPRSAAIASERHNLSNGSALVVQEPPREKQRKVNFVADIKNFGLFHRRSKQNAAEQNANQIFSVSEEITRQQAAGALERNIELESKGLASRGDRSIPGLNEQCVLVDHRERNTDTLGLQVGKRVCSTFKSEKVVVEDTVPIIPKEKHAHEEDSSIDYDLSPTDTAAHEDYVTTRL

[15] = molecular target: Heat shock protein HSP 90-alpha (Homo sapiens, UniProt P07900); assay type: functional, organism-based
[16] = molecular target: T5, SUMO-activating enzyme (Homo sapiens, UniProt Q9UBT2); test: blockers of UBC9-mediated SUMO conjugation – biochemical, AlphaScreen, SUMOylation inhibitor project, confirmation (AID 2018); assay type: functional
T5 sequence (Q9UBE0 whole entry): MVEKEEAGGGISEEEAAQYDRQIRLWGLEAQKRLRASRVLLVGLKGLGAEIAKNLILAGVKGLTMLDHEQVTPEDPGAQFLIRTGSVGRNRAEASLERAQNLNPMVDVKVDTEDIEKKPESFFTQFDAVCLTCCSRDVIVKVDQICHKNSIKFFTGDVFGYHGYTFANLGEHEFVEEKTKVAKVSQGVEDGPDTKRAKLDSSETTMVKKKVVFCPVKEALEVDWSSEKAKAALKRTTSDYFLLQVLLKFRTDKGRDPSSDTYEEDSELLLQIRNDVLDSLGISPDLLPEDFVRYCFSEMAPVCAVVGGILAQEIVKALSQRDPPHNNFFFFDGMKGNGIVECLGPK
T5 sequence (Q9UBT2 whole entry): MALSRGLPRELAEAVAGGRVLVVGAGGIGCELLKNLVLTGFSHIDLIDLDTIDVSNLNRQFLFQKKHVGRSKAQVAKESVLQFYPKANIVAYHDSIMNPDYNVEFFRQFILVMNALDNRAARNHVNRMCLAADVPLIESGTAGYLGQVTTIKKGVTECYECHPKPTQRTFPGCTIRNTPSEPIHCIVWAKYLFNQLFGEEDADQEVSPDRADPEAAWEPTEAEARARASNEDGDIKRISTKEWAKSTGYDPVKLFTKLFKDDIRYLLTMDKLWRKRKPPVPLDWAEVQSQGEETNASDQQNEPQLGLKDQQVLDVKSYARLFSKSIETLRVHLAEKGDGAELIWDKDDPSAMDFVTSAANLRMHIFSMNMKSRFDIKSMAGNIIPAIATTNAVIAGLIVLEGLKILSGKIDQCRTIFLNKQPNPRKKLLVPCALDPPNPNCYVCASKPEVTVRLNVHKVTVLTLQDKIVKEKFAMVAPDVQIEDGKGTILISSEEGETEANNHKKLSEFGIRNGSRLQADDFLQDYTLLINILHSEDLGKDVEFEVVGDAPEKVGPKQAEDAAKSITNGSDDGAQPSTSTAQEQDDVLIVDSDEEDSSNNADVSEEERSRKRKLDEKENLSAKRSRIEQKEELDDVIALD

[17] = molecular target: T5, SUMO-activating enzyme; test: blockers of SAE1/SAE2–UBC9 SUMO transfer – biochemical, HTRF, uHTS, primary screen (AID 2006); assay type: protein-complex assay
[18] = molecular target: T4, Short transient receptor potential channel 4; test: calcium entry via TRPC4 opening agents – cell-based, HEK293 TRPC4/mu-opioid, Fluo-4 calcium, dose response (AID 434937); assay type: functional
[19] = molecular target: T6, CAAX prenyl protease 2 (Saccharomyces cerevisiae S288c, UniProt Q03530); assay type: biochemical
T6 sequence (Q03530 whole entry): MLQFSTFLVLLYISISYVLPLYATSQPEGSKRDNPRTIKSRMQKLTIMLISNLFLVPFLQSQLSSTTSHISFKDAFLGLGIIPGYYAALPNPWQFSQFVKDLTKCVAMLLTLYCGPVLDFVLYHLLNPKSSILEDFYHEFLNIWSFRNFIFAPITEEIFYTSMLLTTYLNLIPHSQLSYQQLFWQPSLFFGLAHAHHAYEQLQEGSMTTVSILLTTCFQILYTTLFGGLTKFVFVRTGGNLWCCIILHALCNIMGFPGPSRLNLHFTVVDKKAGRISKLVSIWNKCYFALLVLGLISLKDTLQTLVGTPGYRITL

[20] = molecular target: T7, RNA-binding protein pos-1 (Caenorhabditis elegans, UniProt G5EF15); test: disruptors of C. elegans POS-1 RNA interaction – biochemical, fluorescence polarization, dose response (AID 1964);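 also: purified POS-1 fused to maltose binding protein made in E. coli; potency of compounds blocking POS-1 binding to fluorescent RNA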
T7 sequence (G5EF15 whole entry): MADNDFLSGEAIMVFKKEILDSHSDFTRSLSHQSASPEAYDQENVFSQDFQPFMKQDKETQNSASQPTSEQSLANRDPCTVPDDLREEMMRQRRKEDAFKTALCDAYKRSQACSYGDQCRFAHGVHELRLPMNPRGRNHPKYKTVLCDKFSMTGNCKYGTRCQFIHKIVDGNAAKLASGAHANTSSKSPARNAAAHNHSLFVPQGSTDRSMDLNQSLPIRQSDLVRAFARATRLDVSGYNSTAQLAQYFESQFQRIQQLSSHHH

[21] = A Cell Based Secondary Assay To Explore Cytotoxicity of Compounds that Sensitize Mycobacterium Tuberculosis to Beta-Lactam Antibiotics.; assay type: functional
[22] = molecular target: T8, Zinc finger protein mex-5 (Caenorhabditis elegans, UniProt Q9XUB2); test: potency of MEX-5 RNA-binding blockers – biochemical, C. elegans, fluorescence polarization, dose response (AID 1960)
T8 sequence (Q9XUB2 whole entry): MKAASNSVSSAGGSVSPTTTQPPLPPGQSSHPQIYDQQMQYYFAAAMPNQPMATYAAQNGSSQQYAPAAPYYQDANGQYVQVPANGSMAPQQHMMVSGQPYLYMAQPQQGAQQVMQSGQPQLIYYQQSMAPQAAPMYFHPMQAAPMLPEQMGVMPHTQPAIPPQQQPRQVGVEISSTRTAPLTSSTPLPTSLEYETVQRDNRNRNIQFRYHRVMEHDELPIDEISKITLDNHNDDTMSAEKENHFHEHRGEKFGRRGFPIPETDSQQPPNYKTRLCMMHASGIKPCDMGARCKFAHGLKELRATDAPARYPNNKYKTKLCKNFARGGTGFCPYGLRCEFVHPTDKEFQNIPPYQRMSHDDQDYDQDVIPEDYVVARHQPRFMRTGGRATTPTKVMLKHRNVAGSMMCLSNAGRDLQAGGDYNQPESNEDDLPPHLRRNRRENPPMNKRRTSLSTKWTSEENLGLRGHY

[23] = molecular target: Luciferin 4-monooxygenase (Photinus pyralis, UniProt P08659); test: inhibition of purified Photinus pyralis luciferase – biochemical, luminescence, dose response (AID 1891)
[24] = Luminescence Cell-Based Dose Confirmation HTS to Identify Inhibitors of Platelet Dense Granule Release. [Related pubchem assays: 1663 (Primary HTS), 1678 (Summary of Project)]; assay type: functional
[25] = reduction of Shn3 3'UTR-driven luciferase in osteoblasts – cell-based, Clone20 osteoblasts, firefly luciferase, cherry-picked, dose response (AID 624132); assay type: functional;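 also: firefly luciferase luminescence from reporter carrying the Shn3 3'UTR in osteoblasts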
[26] = loss of viability in HepG2 cells – cell-based, CellTiter-Glo, cherry-picked, cytotoxicity control for Shn3 inhibitor project, dose response (AID 624134); assay type: functional

Chain of G-protein coupled receptor 55 (Q9Y2T6 whole entry): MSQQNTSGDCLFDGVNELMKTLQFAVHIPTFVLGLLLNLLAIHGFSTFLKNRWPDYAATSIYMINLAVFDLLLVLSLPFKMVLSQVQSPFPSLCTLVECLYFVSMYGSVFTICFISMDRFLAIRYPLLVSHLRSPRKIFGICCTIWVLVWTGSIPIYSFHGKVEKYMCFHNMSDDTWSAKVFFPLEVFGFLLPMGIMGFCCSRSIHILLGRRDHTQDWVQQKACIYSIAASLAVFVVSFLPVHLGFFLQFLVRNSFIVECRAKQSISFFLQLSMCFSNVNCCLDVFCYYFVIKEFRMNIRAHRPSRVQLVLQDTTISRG
Chain of Glyceraldehyde-3-phosphate dehydrogenase (P04406 whole entry): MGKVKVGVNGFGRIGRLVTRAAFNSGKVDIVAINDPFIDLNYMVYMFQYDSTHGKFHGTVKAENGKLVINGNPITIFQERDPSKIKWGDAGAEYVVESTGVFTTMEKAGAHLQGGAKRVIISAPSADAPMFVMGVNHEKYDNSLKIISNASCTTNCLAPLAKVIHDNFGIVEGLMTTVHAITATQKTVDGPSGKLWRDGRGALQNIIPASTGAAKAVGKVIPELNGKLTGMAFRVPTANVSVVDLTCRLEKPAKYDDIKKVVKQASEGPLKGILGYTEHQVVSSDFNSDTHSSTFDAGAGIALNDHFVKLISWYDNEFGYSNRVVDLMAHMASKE

CC(C)(C)n1nnnc1C(c1cccs1)N(Cc1ccccc1)Cc1cccnc1 (stereo unspecified)
IC50 [1]: 7.73 µM (active)

CC(C)(C)C(=O)COC(=O)c1cc(-c2ccc(Br)cc2)n[nH]1
IC50 [2]: > 100 µM (not active) | IC50 [3]: > 100 µM (inactive)

O=C(CC12CC3CC(CC(C3)C1)C2)NC(=S)NCc1ccco1
IC50 [1]: 0.969 µM (active) | EC50 [4]: 2.29 µM (active) | EC50 [5]: > 60 µM (inconclusive)

CC(C)c1nnc(NC(=O)c2sc3ccccc3c2Cl)s1
IC50 [6]: 67.9 µM (inactive) | AC50 [7]: 22.4 µM (inconclusive)

CCCCN(CCCNC(=O)C1CCN(S(=O)(=O)N2CCOCC2)CC1)c1ccccc1
IC50 [8]: > 32 µM (inactive) | EC50 [9]: > 32 µM (inactive) | EC50 [10]: > 32 µM (inactive) | IC50 [11]: 25.3 µM (inactive) | EC50 [12]: > 31.5 µM (inactive) | IC50 [13]: 4.56 µM

CC1CCN(CCOCCOc2ccccc2-c2ccccc2)CC1
EC50 [14]: 2.99 µM (active)

Cc1ccc(S(=O)(=O)N2CCN(c3nc(C)c4c(c3C#N)CC(C)(C)OC4)CC2)cc1
IC50 [1]: 10.9 µM (inactive)

CCC1=NN2C(=N)/C(=C\c3cccn3-c3ccc(C)cc3C)C(=O)N=C2S1
AC50 [15]: 8.16 µM (active)

Fc1ccccc1CNCCC(Cc1ccccc1)c1ccc2c(c1)OCO2 (stereo unspecified)
EC50 [14]: 13.3 µM (active)

Cn1c(CNc2ccc(Cl)cc2)nnc1SCc1ccccc1
AC50 [15]: 4.08 µM (active)

Cc1ccc(NC(=O)COc2ccc(/C=C3/NC(=O)NC3=O)cc2)cc1
IC50 [16]: 19.2 µM (active) | IC50 [17]: 17.1 µM (active)

COc1ccc(C(CNC(=O)c2cccc3cccnc23)N(C)C)cc1 (stereo unspecified)
EC50 [14]: 0.531 µM (active) | EC50 [18]: 1.19 µM (active)

COCCNc1c2c(nc3ccccc13)CCC2
EC50 [14]: 5.96 µM (active)

Cc1cc(OCC(=O)Nc2ccc(S(=O)(=O)N3CCN(C)CC3)cc2)cc(C)c1Cl
IC50 [8]: > 32 µM (inactive) | EC50 [9]: > 32 µM (inactive) | EC50 [10]: > 32 µM (inactive) | IC50 [11]: 7.36 µM (active) | EC50 [12]: > 31.5 µM (inactive) | IC50 [13]: > 32 µM

O=C1c2ccccc2C(=O)N1c1nnc[nH]1
IC50 [2]: > 100 µM (not active) | IC50 [3]: > 100 µM (inactive)

CCN1CCN(c2ncnc3sc(C)c(-c4ccccc4)c23)CC1
EC50 [18]: 5.96 µM (active)

CS(=O)(=O)c1ccc(C(=O)OCC(=O)N(CCc2ccccc2)Cc2ccccc2)cc1
AC50 [19]: 7.85 µM (active)

CN(C)c1ccc(/C=C/c2nc3ccccc3s2)cc1
EC50 [20]: > 300 µM (not active) | CC50 [21]: 25.3 µM (active) | EC50 [22]: > 300 µM (not active) | EC50 [23]: 1.43 µM (active) | EC50 [24]: 4.65 µM (active) | AC50 [25]: 0.494 µM (active) | AC50 [26]: 25.6 µM (active)

Reference: ChEMBL document CHEMBL1201862, “PubChem BioAssay data set” (2004)
